Results on 1 compound are retold here after ChEMBL document CHEMBL5126595, “Identification and anti-tumor evaluation of 3-acyl-indol-based 2,4-diarylaminopyrimidine analogues as potent ALK inhibitors capable of overcoming drug-resistant mutants” (Eur J Med Chem, 2022).

In data set [1] the test system is NCI-H2228. Kind of data set: Induction of apoptosis in human NCI-H2228 cells assessed as early apoptotic cells by measuring bright green fluorescence at 25 nM incubated for 48 hrs by AO/EB staining based fluorescence microscopic analysis. It is filed as functional, cell-based.
The subject of data set [2] is NCI-H2228. Briefly: Induction of apoptosis in human NCI-H2228 cells assessed as early apoptotic cells at 25 nM incubated for 48 hrs by AnnexinV-FITC/propidium iodide staining based flow cytometry analysis (reference value: 2.45 %). The data set is classed as functional.
Data set [3] has as its system NCI-H2228. Briefly: Induction of apoptosis in human NCI-H2228 cells assessed as viable cells at 25 nM incubated for 48 hrs by AnnexinV-FITC/propidium iodide staining based flow cytometry analysis (reference value: 92.3 %). It is filed as functional. To be noted: read-out: Activity. On the technique in general: A flow cytometer gives signals particle by particle.
For data set [4], the system named is NCI-H2228. Briefly: Inhibition of colony formation in human NCI-H2228 cells assessed as reduction in colony area at 50 nM incubated for 3 day by crystal violet staining based assay. To be noted: NCI-H2228, 72 h. It is filed as functional.
Data set [5] can be described thus: Antiproliferative activity […] EML4-ALK-L1196M cells assessed as inhibition of cell growth incubated for 72 hrs by MTT assay. It is filed as functional, cell-based. (Tetrazolium dyes change colour on reduction, which living cells bring about.)
Data set [6] has as its system NCI-H2228. Kind of data set: Inhibition of cell migration in human NCI-H2228 cells at 10 nM measured at 24 hrs by inverted microscopic based cell scratch assay relative to control. It is filed as functional.
Another data set deals with A549. Briefly: Antiproliferative activity against EGFR positive human A549 cells assessed as inhibition of cell growth incubated for 72 hrs by MTT assay. The data set is classed as functional, cell-based. The note with it: A549, 72 h.
A short description of data set [7]: Half-life in Sprague-Dawley rat at 2 mg/kg, iv by LC-MS/MS analysis. The data set is classed as ADME, organism-based. The note with it: in vivo.
Data set [8] can be described thus: Cmax in Sprague-Dawley rat at 10 mg/kg, po by LC-MS/MS analysis. The data set is classed as ADME, organism-based. The note with it: in vivo. On the set-up: dose 10 mg/kg, route po.
Data set [9] has as its target ALK tyrosine kinase receptor (Homo sapiens, UniProt Q9UM73). Kind of data set: Inhibition of ALK downstream signalling in human NCI-H2228 cells assessed as reduction in phosphorylated AKT level measured after 24 hrs by Western blot analysis. It is filed as cell-based. To be noted: dose 25-100 nM, DDE = dose-dependent effect. A general note: Immunoblotting shows a protein as a band on a membrane.

For data set [10], the system named is NCI-H2228. Briefly: Antitumor activity against human NCI-H2228 cells xenografted in BALB/c nude mouse assessed as tumor regression at 25 mg/kg, IG administered every 2 days for 4 times. It is filed as functional, organism-based. To be noted: time 8.0 day.
Data set [11] deals with ALK tyrosine kinase receptor (Homo sapiens, UniProt Q9UM73, G1202R). Briefly: Inhibition of N-terminal GST-tagged human ceritinib-resistant ALK G1202R mutant (1058 to 1620 residues) cytoplasmic domain expressed in baculovirus infected Sf21 cells incubated for 1 hrs in the presence of ATP by mobility shift assay.
Chain of ALK tyrosine kinase receptor (Homo sapiens, UniProt Q9UM73, G1202R) (Q9UM73 19-1620 G1202R limits assumed): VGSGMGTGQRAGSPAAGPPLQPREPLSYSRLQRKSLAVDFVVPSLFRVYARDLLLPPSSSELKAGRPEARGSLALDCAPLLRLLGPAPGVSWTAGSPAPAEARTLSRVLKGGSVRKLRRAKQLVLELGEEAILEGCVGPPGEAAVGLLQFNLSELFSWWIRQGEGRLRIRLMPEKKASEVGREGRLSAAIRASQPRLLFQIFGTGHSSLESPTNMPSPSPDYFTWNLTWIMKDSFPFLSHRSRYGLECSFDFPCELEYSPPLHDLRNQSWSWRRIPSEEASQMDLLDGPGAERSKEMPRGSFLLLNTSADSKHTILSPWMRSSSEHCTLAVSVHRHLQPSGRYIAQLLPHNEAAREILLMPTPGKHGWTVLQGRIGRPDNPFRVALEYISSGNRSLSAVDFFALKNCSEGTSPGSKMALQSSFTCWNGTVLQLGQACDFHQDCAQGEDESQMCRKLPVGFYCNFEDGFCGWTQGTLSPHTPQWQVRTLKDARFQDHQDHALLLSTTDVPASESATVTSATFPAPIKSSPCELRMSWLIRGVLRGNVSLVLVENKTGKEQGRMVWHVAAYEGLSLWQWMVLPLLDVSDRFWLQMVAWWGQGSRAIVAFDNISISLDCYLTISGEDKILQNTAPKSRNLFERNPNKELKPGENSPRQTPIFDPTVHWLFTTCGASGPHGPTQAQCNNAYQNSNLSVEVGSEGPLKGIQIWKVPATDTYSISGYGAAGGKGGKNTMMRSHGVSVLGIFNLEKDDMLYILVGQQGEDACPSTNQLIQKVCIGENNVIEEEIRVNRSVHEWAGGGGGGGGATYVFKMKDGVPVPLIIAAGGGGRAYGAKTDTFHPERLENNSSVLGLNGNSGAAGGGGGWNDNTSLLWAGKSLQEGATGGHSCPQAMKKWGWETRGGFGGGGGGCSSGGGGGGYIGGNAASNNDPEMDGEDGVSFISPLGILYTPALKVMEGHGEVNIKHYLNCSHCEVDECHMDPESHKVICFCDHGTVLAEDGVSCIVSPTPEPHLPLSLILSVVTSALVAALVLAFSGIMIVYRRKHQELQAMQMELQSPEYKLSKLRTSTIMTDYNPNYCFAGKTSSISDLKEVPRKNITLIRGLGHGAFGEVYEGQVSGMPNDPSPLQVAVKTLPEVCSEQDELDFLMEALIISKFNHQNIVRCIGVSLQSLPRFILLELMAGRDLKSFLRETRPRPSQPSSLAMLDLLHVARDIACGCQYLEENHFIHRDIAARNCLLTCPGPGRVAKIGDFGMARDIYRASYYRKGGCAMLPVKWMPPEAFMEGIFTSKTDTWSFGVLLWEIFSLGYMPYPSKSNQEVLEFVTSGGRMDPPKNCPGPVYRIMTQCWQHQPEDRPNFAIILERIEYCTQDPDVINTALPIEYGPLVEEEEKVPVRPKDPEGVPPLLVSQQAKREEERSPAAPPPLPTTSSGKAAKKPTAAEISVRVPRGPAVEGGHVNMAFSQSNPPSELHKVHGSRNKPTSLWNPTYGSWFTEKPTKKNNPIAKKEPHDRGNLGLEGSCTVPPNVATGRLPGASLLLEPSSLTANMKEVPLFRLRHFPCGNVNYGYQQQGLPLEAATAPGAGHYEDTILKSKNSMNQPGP
The test system of the next data set is Hep 3B2. Briefly: cells. The note with it: Homo sapiens, Hep3B, 72 h.
The subject of data set [12] is NCI-H2228. Kind of data set: Induction of apoptosis in human NCI-H2228 cells assessed as late apoptotic cells at 50 nM incubated for 48 hrs by AnnexinV-FITC/propidium iodide staining based flow cytometry analysis (reference value: 4.72 %). The data set is classed as functional.

pIC50: −log10 of the molar value. Active and inactive are the calls of the source.

Chain of ALK tyrosine kinase receptor (Homo sapiens, UniProt Q9UM73) (Q9UM73 19-1620 limits assumed): as the sequence (Q9UM73 19-1620 G1202R limits assumed) above, with R1184G counted along it
Description for Hep 3B2: Antiproliferative activity against human Hep3B cells assessed as inhibition of cell growth incubated for 72 hrs by MTT assay

Broadly, the inhibition is the change of the read-out against control, counted positive when it falls. The pIC50 is −log10 of the IC50, conventionally taken in molar units. A word on the half-life: it is the time needed for the level to fall by half in the phase considered. Higher therefore signals slow decline. What is called Cmax is the maximum level reached in the sampled fluid or tissue. Take `CNC(=O)c1ccccc1Nc1nc(Nc2ccc3c(C(=O)N(C)C)c(C)[nH]c3c2)ncc1Cl`: the result in the data set on NCI-H2228 [1] and in the data set with NCI-H2228 [10] was Active. Moreover, the Activity in the data set on NCI-H2228 [2] came to 3.73%; in the data set on NCI-H2228 [12], 16.5%. Also, the viability at 0.025 µM in the data set on NCI-H2228 [3] came out at 84.1%. In addition, the inhibition at 0.05 µM in the data set on NCI-H2228 [4] stood at 50%. The pIC50 in data set [5] was 7.68; with A549 it was 5.62; in data set [11] it was 8.54; in the data set on Hep 3B2, 7.23. For the same compound, the inhibition at 0.01 µM in the data set with NCI-H2228 [6] worked out at 3.6%. The compound further showed a half-life in data set [7] of 2.5 h. The same compound gave a Cmax in data set [8] of 346 ng/mL. Further, the inhibition result in [9] is “Dde”.
